Assay results taken from US12427179B2, “Compositions and methods for diagnosis and treatment of neurodegenerative diseases” (EPITRACKER, INC., priority 2019, dated 2025).

Experiments:
Type in all cases: cell-based, human
[1] = system: LPS: Venular endothelial cells, peripheral blood mononuclear cells (TLR4 ligand); assay: BioMAP LPS system; conditions: at the compound's active concentration
Method: (§1) Anti-inflammatory phenotypic profiling was conducted across 12 human primary cell-based systems as part of DiscoverX's BioMAP Diversity Plus program. These systems are designed to model complex human tissue and disease biology of the vasculature, skin, lung, and inflammatory tissues. Quantitative measurements of biomarker activities across this broad panel were used to assess each biochemical's anti-inflammatory activity at four concentrations ([…] and 2.2, 6.7 and 20 μM). […] Protein-based biomarkers from activated cell systems were measured and compared with controls. Biomarker activities were annotated when 2 or more consecutive concentrations change in the same directions relative to vehicle controls, were outside of the significance envelope and had at least one concentration with an effect size>20% (log 10 ratio)>0.1.
(§2) In the first system, human primary peripheral blood mononuclear cells and venular endothelial cells were stimulated with lipopolysaccharide (LPS) and incubated with the test agent, drug control, or vehicle control for 24 hours. In the second system, peripheral blood mononuclear cells and B cells were stimulated with α-IgM and T cell receptor ligands and incubated with the test agent, drug control, or vehicle control for 24 hours. In both systems, a negative, non-stimulated system was also included.
(§3) The Diversity PLUS panel allows test agent characterization in an unbiased way across a broad set of systems modeling various human disease states. These systems are designed to model complex human tissue and disease biology of the vasculature, skin, lung, and inflammatory tissues. Quantitative measurements of 148 biomarker activities across this broad panel, along with comparative analysis of biological activities from known bioactive agents, were used to predict and compare the efficacy and function of each selected compound at selected concentrations (6.7 and/or 20 μM).
(§4) BioMAP systems are constructed with one or more primary cell types from healthy human donors, with stimuli (such as cytokines or growth factors) added to capture relevant signaling networks that naturally occur in human tissue or pathological conditions. Vascular biology is modeled in both a Th1 (3C system) and a Th2 (4H system) inflammatory environment, as well as in a Th1 inflammatory state specific to arterial smooth muscle cells (CASM3C system). Additional systems recapitulate aspects of the systemic immune response including monocyte-driven Th1 inflammation (LPS system) or T cell stimulation (SAg system), chronic Th1 inflammation driven by macrophage activation (lMphg system) and the T cell-dependent activation of B cells that occurs in germinal centers (BT system). The BE3C system (Th1) and the BF4T system (Th2) represent airway inflammation of the lung, while the MyoF system models myofibroblast-lung tissue remodeling. Lastly, skin biology is addressed in the KF3CT system modeling Th1 cutaneous inflammation and the HDF3CGF system modeling wound healing.
(§5) Each test agent generates a signature BioMAP profile that is created from the changes in protein biomarker readouts within individual system environments. Biomarker readouts (7-17 per system) are selected for therapeutic and biological relevance, are predictive for disease outcomes or specific drug effects and are validated using agents with known mechanism of action (MoA). Each readout is measured quantitatively by immune-based methods that detect protein (e.g., ELISA) or functional assays that measure proliferation and viability. BioMAP readouts are diverse and include cell surface receptors, cytokines, chemokines, matrix molecules and enzymes. In total, the Diversity PLUS panel contains 148 biomarker readouts that capture biological changes that occur within the physiological context of the particular BioMAP system. […]

[2] = system: BT: Peripheral blood mononuclear cells, B cells (α-IgM, TCR ligands); assay: BioMAP BT system; conditions: BT system; at the compound's active concentration
Method: as §1, §2, §3, §4, §5

[3] = system: CASM3C: Coronary artery smooth muscle cells (IL-1β, TNFα, IFNγ); assay: BioMAP CASM3C system; conditions: CASM3C system; at the compound's active concentration
Text: The Diversity PLUS panel allows test agent characterization in an unbiased way across a broad set of systems modeling various human disease states. These systems are designed to model complex human tissue and disease biology of the vasculature, skin, lung, and inflammatory tissues.
as §4
Each test agent generates a signature BioMAP profile that is created from the changes in protein biomarker readouts within individual system environments. Biomarker readouts (7-17 per system) are selected for therapeutic and biological relevance, are predictive for disease outcomes or specific drug effects and are validated using agents with known mechanism of action (MoA). Each readout is measured quantitatively by immune-based methods that detect protein (e.g., ELISA) or functional assays that measure proliferation and viability. BioMAP readouts are diverse and include cell surface receptors, cytokines, chemokines, matrix molecules and enzymes.
(§6) Activated BioMAP systems were incubated with each compound for 24 to 72 hours. Protein-based biomarkers from activated cell systems were measured and compared with non-treated control systems.

[4] = system: /Mphg: Macrophages, venular endothelial cells (TLR2 ligand); assay: BioMAP /Mphg system; conditions: at the compound's active concentration
Text: as §3, §4, §5, §6

**Q.** `O=C(O)CNC(=O)c1ccccc1` [hippurate] was tested. Which “CD40, log10 reduction vs nontreated controls” value [1] did it give?
**A.** −0.11 log10

**Q.** What about the “Secreted IgG, log10 reduction vs nontreated controls” value [2] of the same compound?
**A.** −0.21 log10

**Q.** And the “Thrombomodulin, log10 reduction vs nontreated controls” value [3]?
**A.** −0.16 log10

**Q.** What about the “IL-8, log10 reduction vs nontreated controls” value [4] of the same compound?
**A.** −0.12 log10
